According to US20110040086A1, “Novel Beta-Lactam Antibiotics, Methods for Their Production, and Their Use” (DRITTE PATENTPORTFOLIO BETEILIGUNGSGESELLSCHAFT MB, priority 2007, published 2011):

Tests used:
B. subtilis AWD 166 = assay: agar diffusion test (antimicrobial effect); format: cell-based, Bacillus subtilis
Outline: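 Nutrient agar seeded with B. subtilis AWD 166 to give dense non-confluent colonies; compounds in methanol or distilled water applied to discs at 10, 50, 100 μg. After 20 h at 37 °C, inhibition zone diameter measured in mm.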

[1] = test system: Bacillus megaterium SBUG 1152; assay: agar diffusion test (Test System 1, antimicrobial effect); format: cell-based
Outline: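 B. megaterium SBUG 1152 grown overnight (17 h, 37° C., 180 rpm) and seeded at 10^6 cells per 10 ml nutrient agar. Compound at 10, 50 and 100 μg, dissolved in methanol or water, applied to paper discs. Inhibition-zone diameter (mm) read after 20 h at 37° C.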

S. epidermidis 1068 = assay: agar diffusion test (Test System II, multi-resistant germs); format: cell-based, Staphylococcus epidermidis
Outline: (§1)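 A McFarland 0.5 bacterial suspension in physiological saline is spread vertically, horizontally and transversely over Müller-Hinton agar II. Three sensi-discs bearing 10, 50 and 100 μg of test compound go onto each plate, which then incubates at 37 °C for 18-20 h before zone diameters are recorded.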

S. epidermidis 563 = assay: as above; format: cell-based, Staphylococcus epidermidis
Outline: as §1

S. epidermidis 1071 = assay: as above; format: cell-based, Staphylococcus epidermidis
Outline: as §1

S. epidermidis 847 = assay: as above; format: cell-based, Staphylococcus epidermidis
Outline: as §1

S. aureus 39105 = assay: as above; format: cell-based, Staphylococcus aureus; set-up: key: r = resistant (no detectable zone of inhibition)
Outline: as §1

S. aureus 36881 = assay: as above; format: cell-based, Staphylococcus aureus; set-up: key: r = resistant (no detectable zone of inhibition)
Outline: as §1

S. aureus 33490 = assay: as above; format: cell-based, Staphylococcus aureus; set-up: key: r = resistant (no detectable zone of inhibition)
Outline: as §1

S. aureus 526 = assay: as above; format: cell-based, Staphylococcus aureus; set-up: key: r = resistant (no detectable zone of inhibition)
Outline: as §1

S. aureus 520 = assay: as above; format: cell-based, Staphylococcus aureus; set-up: key: r = resistant (no detectable zone of inhibition)
Outline: as §1

[2] = test system: S. aureus North Germany strain; assay: as above; format: cell-based, Staphylococcus aureus; set-up: key: r = resistant (no detectable zone of inhibition)
Outline: as §1

S. aureus 34289 = assay: as above; format: cell-based, Staphylococcus aureus; set-up: key: r = resistant (no detectable zone of inhibition)
Outline: as §1

S. epidermidis 125 = assay: as above; format: cell-based, Staphylococcus epidermidis
Outline: as §1

[3] = test system: Escherichia coli SBUG 1135; assay: agar diffusion test (Test System 1, antimicrobial effect); format: cell-based
Outline: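 E. coli SBUG 1135 grown 17 h at 37° C, 180 rpm, diluted 1:100 and seeded in nutrient agar at ~10^6 cells. Discs loaded with 10, 50 or 100 μg compound (methanol or water); inhibition-zone diameter (mm) read after 20 h at 37° C.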

[4] = test system: Staphylococcus aureus 315; assay: agar diffusion test (Test System II, multi-resistant germs); format: cell-based; set-up: key: r = resistant (no detectable zone of inhibition)
Outline: as §1

[5] = test system: Enterococcus faecalis 769; assay: as above; format: cell-based; set-up: key: r = resistant (no detectable zone of inhibition)
Outline: as §1

S. aureus 38418 = assay: as above; format: cell-based, Staphylococcus aureus
Outline: as §1

Measured: Diameter of zone of inhibition

NC(=O)C1=C(NC(C(=O)NC2C(=O)N3C(C(=O)O)=C(Cl)CSC23)c2ccccc2)C(=O)C=CC1=O (stereo not drawn) [1j, 3-chlorine-7-[2-(2-carbamoyl-3,6-dioxocyclohexa-1,4-dienylamino)-2-phenyl-acetylamino]-8-oxo-1-thia-5-azabicyclo[4.2.0]oct-3-en-4-carboxylic acid]
22 mm: S. epidermidis 1068; Quantity n 0.1 | S. epidermidis 125; Quantity n 0.02 | S. aureus 38418; Quantity n [mol] 0.02
r: S. aureus 39105; Quantity n 0.02 | S. aureus 36881; Quantity n 0.02 | S. aureus 526; Quantity n 0.02 | S. aureus 526; Quantity n 0.1 | S. aureus 526; Quantity n 0.2 | S. aureus 520; Quantity n [mol] 0.02 | [2]; Quantity n 0.02 | S. aureus 34289; Quantity n [mol] 0.02 | S. aureus 34289; Quantity n [mol] 0.1 | S. aureus 34289; Quantity n [mol] 0.2 | [4]; Quantity n 0.02 | [5]; Quantity n 0.02
24 mm: S. epidermidis 847; Quantity n [mol] 0.2 | S. aureus 33490; Quantity n [μmol] 0.1
8 mm: S. aureus 520; Quantity n [mol] 0.1 | [4]; Quantity n 0.1 | [5]; Quantity n 0.1
20 mm: S. epidermidis 563; Quantity n 0.02 | S. epidermidis 847; Quantity n [mol] 0.1
40 mm: B. subtilis AWD 166; Quantity n 0.2 | [1]; Quantity n 0.2
36 mm: [1]; Quantity n 0.1
30 mm: B. subtilis AWD 166; Quantity n 0.02 | S. epidermidis 125; Quantity n 0.1 | S. aureus 38418; Quantity n [mol] 0.1
28 mm: [1]; Quantity n 0.02 | S. epidermidis 1071; Quantity n 0.2 | [3]; Quantity n 0.2
26 mm: S. epidermidis 1068; Quantity n 0.2 | S. epidermidis 563; Quantity n 0.1 | S. epidermidis 1071; Quantity n 0.1 | S. aureus 33490; Quantity n [μmol] 0.2 | [3]; Quantity n 0.1
16 mm: S. epidermidis 1068; Quantity n 0.02 | S. aureus 39105; Quantity n 0.1 | S. aureus 36881; Quantity n 0.2 | S. aureus 33490; Quantity n [μmol] 0.02 | [2]; Quantity n 0.2
18 mm: S. epidermidis 1071; Quantity n 0.02 | S. aureus 39105; Quantity n 0.2 | [3]; Quantity n 0.02
12 mm: S. aureus 36881; Quantity n 0.1 | S. aureus 520; Quantity n [mol] 0.2 | [2]; Quantity n 0.1 | [4]; Quantity n 0.2 | [5]; Quantity n 0.2
38 mm: B. subtilis AWD 166; Quantity n 0.1
34 mm: S. aureus 38418; Quantity n [mol] 0.2
10 mm: S. epidermidis 847; Quantity n [mol] 0.02
32 mm: S. epidermidis 563; Quantity n 0.2 | S. epidermidis 125; Quantity n 0.2
